According to patent US12202829B2, “Heterocyclic compound” (FIMECS, Inc., priority 2018, dated 2025):
pIC50: −log10 of the molar value. Structures can show the parent of a compound that is named as a salt.

What was measured:
[1] = molecular target: T1, human XIAP_BIR3 domain purified protein (Homo sapiens, UniProt P98170); test: XIAP binding inhibitory activity, HTRF method with b-Smac ligand; conditions: for inhibition at 3 µM: test compound 3 μM, first symbol of the cell, read-out: XIAP binding inhibition rate when the concentration of the test compound is 3 μM; for pIC50: second symbol of the cell, read-out: XIAP binding 50% inhibitory concentration (IC50 value)
T1 construct: purchased R & D
Method in brief: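 HTRF competition: human XIAP BIR3 and C-terminally biotinylated Smac peptide AVPIAQK, each diluted to 90 nM before addition, in HEPES pH 7.5 buffer with NaCl, BSA, Triton X-100. Eu-cryptate anti-His/streptavidin-XL665 detection after ≥4 h at room temperature; inhibition % from 665/615 ratio versus no-compound control.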

[2] = molecular target: T2, GCN2 (Homo sapiens, UniProt Q9P2K8, S808G); test: KINOMEscan active site-dependent competitive binding assay, GCN2; conditions: test compound 1 μM; DMSO = 100% Ctrl, control compound = 0% Ctrl
T2 construct: purchased Discover X (KINOMEscan service)
T2 sequence (Q9P2K8 590-1001 S808G limits assumed): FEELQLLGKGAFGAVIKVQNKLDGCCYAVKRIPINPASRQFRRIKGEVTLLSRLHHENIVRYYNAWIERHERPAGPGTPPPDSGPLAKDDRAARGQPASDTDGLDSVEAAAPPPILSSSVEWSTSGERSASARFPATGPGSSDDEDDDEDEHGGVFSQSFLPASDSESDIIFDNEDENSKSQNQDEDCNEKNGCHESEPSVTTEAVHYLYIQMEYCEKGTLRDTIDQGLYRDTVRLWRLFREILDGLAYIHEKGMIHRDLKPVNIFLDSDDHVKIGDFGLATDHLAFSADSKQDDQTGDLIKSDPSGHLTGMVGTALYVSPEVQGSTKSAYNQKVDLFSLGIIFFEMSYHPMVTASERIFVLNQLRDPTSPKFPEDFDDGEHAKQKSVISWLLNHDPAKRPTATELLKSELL
Procedure: (§1) Each of GSK3a/B and GCN2 binding inhibitory activity was evaluated using active site-dependent competitive assay KINOMEscan provided by Discover X (Goldstein, D. M. et al. High-throughput kinase profiling as a platform for drug discovery. Nat. Rev. Drug Discovery. 7, 391-397 (2008)). the “% Ctrl” when the concentration of the test compound is 1 μM is shown in the table below. The “% Ctrl” is calculated by the following formula. (test compound signal−positive control compound signal)/(negative control compound signal−positive control compound signal)×100 • Negative control compound=DMSO (100% Ctrl) • Positive control compound=control compound (0% Ctrl)

[3] = molecular target: T3, GCN2 (Homo sapiens, UniProt Q9P2K8); test: In vitro degradation activity of GCN2 in THP1 cells, western blotting; assay type: cell-based; conditions: test compound 10 μM, 24 hours, relative to DMSO control set at 100
T3 construct: endogenous in cells; host or cells: THP1 (ATCC)
Procedure: (§2) In vitro degradation activities of GSK3α/β and GCN2 of the example compounds were evaluated by the following method. THP1 cells were purchased from ATCC and cultured in RPMI-1640 supplemented with 10% FBS and 1% penicillin/streptomycin. THP1 cells were seeded at a density of 1×10^6 cells/well in 24-well plate and treated with DMSO control or Example 55 (1, 3, 10 μM), and then incubated for 24 hours. The cells were collected and lysed on ice for 30 minutes in RIPA buffer (Thermo Fisher #87787) containing a protease inhibitor cocktail (Sigma-Aldrich). The lysates were sonicated for 30 sec ON/30 sec OFF for ten cycles and centrifuged for 15 minutes at 15 krpm at 4° C. Protein concentrations were determined by the BCA assay (Thermo Fisher). Proteins were separated with Nu-PAGE (Thermo Fisher) and analyzed by western blotting (standard protocol) using antibodies of anti-GSK3α/β (Cell Signaling #5676), GCN2 (Cell Signaling #3302), and R-actin (Sigma #A2066) (FIG. 1). Bands (luminescent intensities) were quantified using LAS-4000 luminescent image analyzer (Fuji). The values of GSK3α/β and GCN2 were corrected by the internal control value of β-actin and analyzed relative to DMSO control set at 100. The remaining protein rate (%) are described as A≤25%, 25%<B≤50%, 50%<C≤75%, D>75% when the concentration of the test compound is 10 μM.

[4] = tested on: GSK3α/β and GCN2; test: Ubiquitin-proteasome system dependency of degradation in THP1 cells with Epoxomicin; assay type: cell-based, human; conditions: test compound 10 μM with or without 1 μM Epoxomicin, 8 hours, FIG. 2
Procedure: THP1 cells were seeded at a density of 1×10^6 cells/well in 24-well plate and treated with DMSO control or Example 55 (10 μM) with or without 1 μM of Epoxomicin and incubated for 8 hours. The cells were collected and lysed on ice for 30 minutes in RIPA buffer (Thermo Fisher #87787) containing a protease inhibitor cocktail (Sigma-Aldrich). The lysates were sonicated for 30 sec ON/30 sec OFF for ten cycles and centrifuged for 15 minutes at 15 krpm at 4° C. Protein concentrations were determined by the BCA assay (Thermo Fisher). Proteins were separated with Nu-PAGE (Thermo Fisher) and analyzed by western blotting (standard protocol) using antibodies of anti-GSK3α/β Cell Signaling #5676), GCN2 (Cell Signaling #3302), and β-actin (Sigma #A2066) (FIG. 2).

[5] = molecular target: T4, GSK3α (Homo sapiens, UniProt P49840); test: KINOMEscan active site-dependent competitive binding assay, GSK3α; set-up: purchased Discover X (KINOMEscan service); conditions: test compound 1 μM; DMSO = 100% Ctrl, control compound = 0% Ctrl
Procedure: as §1

[6] = molecular target: T5, GSK3β (Homo sapiens, UniProt P49841); test: KINOMEscan active site-dependent competitive binding assay, GSK3β; set-up: purchased Discover X (KINOMEscan service); conditions: test compound 1 μM; DMSO = 100% Ctrl, control compound = 0% Ctrl
Procedure: as §1

[7] = molecular target: T4, GSK3α; test: In vitro degradation activity of GSK3α in THP1 cells, western blotting; assay type: cell-based; set-up: endogenous in cells; host or cells: THP1 (ATCC); conditions: test compound 10 μM, 24 hours, relative to DMSO control set at 100
Procedure: as §2

[8] = molecular target: T5, GSK3β; test: In vitro degradation activity of GSK3β in THP1 cells, western blotting; assay type: cell-based; set-up: endogenous in cells; host or cells: THP1 (ATCC); conditions: test compound 10 μM, 24 hours, relative to DMSO control set at 100
Procedure: as §2

[9] = molecular target: T6, BCR-ABL (Homo sapiens, UniProt P00519); test: In vitro degradation activity of BCR-ABL in K562 cells, western blotting; assay type: cell-based; conditions: test compound 30 μM, 24 hours, relative to DMSO control set at 100
T6 construct: BCR N-terminal part (natural fusion partner, P11274); endogenous in cells; host or cells: K562 (ECACC); the other entry of the earlier key: BCR (P11274, Breakpoint cluster region protein)
Procedure: In vitro degradation activities of BCR-ABL of the example compounds were evaluated by the following method. K562 cells were purchased from ECACC and cultured in RPMI-1640 supplemented with 10% FBS and 1% penicillin/streptomycin. K562 cells were seeded at a density of 1×10^6 cells/well in 24-well plate and treated with DMSO control or Example 80 and 81 (1, 3, 10, 30 μM), and then incubated for 24 hours. The cells were collected and lysed on ice for 30 minutes in lysis buffer (0.5% Triton X-100, 0.01 M Tris-HCl (pH 8.0), 0.15 M NaCl) containing a protease inhibitor cocktail (Sigma-Aldrich). The lysates were vortexed for 2 minutes and centrifuged for 15 minutes at 15 krpm at 4° C. Protein concentrations were determined by the BCA assay (Thermo Fisher). Proteins were separated with Nu-PAGE (Thermo Fisher) and analyzed by western blotting (standard protocol) using antibodies of anti-BCR (Cell Signaling #3902), and R-actin (Sigma #A2066). Bands (luminescent intensities) were quantified using LAS-4000 luminescent image analyzer (Fuji). The values of BCR-ABL were corrected by the internal control value of R-actin and analyzed relative to DMSO control set at 100. The remaining protein rate (%) are described as A≤25%, 25%<B≤50%, 50%<C≤75%, D>75% when the concentration of the test compound is 30 μM.

[10] = molecular target: T7, XIAP (Homo sapiens, UniProt P98170); test: In vitro degradation activity of XIAP in THP1 cells, western blotting; assay type: cell-based; conditions: test compound 10 μM, 24 hours, relative to DMSO control set at 100
T7 construct: endogenous in cells; host or cells: THP1 (ATCC)
Procedure: In vitro degradation activities of XIAP of the example compounds were evaluated by the following method. THP1 cells were purchased from ATCC and cultured in RPMI-1640 supplemented with 10% FBS and 1% penicillin/streptomycin. THP1 cells were seeded at a density of 1×10^6 cells/well in 24-well plate and treated with DMSO control or Example 86 and 87 (0.001, 0.01, 0.1, 1, 10 μM), and then incubated for 24 hours. The cells were collected and lysed on ice for 30 minutes in lysis buffer (0.5% Triton X-100, 0.01 M Tris-HCl (pH 8.0), 0.15 M NaCl) containing a protease inhibitor cocktail (Sigma-Aldrich). The lysates were sonicated for 30 sec ON/30 sec OFF for ten cycles and centrifuged for 15 minutes at 15 krpm at 4° C. Protein concentrations were determined by the BCA assay (Thermo Fisher). Proteins were separated with Nu-PAGE (Thermo Fisher) and analyzed by western blotting (standard protocol) using antibodies of anti-XIAP (Cell Signaling #14334), and β-actin (Sigma #A2066). Bands (luminescent intensities) were quantified using LAS-4000 luminescent image analyzer (Fuji). The values of XIAP were corrected by the internal control value of β-actin and analyzed relative to DMSO control set at 100. The remaining protein rate (%) are described as A≤25%, 25%<B≤50%, 50%<C≤75%, D>75% when the concentration of the test compound is 10 μM.

T1 sequence (P98170 252-356 limits assumed): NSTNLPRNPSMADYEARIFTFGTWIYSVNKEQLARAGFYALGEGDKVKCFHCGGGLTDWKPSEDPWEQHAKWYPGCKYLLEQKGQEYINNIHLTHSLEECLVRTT
T4 sequence (P49840 whole entry): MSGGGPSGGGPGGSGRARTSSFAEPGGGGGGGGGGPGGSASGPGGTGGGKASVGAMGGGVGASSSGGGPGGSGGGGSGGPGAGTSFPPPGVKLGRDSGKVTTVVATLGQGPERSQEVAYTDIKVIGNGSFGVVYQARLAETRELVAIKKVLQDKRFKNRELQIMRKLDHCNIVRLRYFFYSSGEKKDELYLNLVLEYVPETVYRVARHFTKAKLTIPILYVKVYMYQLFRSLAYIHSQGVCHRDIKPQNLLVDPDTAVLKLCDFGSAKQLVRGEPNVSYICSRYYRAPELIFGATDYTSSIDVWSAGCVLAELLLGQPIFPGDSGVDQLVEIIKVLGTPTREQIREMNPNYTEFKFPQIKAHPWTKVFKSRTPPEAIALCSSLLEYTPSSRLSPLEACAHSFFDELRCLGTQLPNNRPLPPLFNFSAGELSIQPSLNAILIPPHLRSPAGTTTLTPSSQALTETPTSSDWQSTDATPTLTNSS
T7 sequence (P98170 whole entry): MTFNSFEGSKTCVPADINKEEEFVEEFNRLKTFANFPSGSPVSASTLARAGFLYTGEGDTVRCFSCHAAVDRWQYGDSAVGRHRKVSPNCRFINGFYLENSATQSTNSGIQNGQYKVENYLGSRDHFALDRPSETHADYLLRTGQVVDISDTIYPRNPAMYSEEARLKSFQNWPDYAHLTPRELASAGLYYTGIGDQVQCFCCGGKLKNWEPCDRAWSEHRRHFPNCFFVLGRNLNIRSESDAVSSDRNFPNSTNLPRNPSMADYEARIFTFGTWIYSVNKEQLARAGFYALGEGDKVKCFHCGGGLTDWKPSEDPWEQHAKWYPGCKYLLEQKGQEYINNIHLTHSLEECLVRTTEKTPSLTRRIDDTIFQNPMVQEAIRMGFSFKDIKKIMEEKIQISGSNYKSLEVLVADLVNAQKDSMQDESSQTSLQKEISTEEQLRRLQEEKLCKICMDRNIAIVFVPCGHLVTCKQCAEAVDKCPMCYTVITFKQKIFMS
T6 sequence (P00519 with tags, fused parts or gaps): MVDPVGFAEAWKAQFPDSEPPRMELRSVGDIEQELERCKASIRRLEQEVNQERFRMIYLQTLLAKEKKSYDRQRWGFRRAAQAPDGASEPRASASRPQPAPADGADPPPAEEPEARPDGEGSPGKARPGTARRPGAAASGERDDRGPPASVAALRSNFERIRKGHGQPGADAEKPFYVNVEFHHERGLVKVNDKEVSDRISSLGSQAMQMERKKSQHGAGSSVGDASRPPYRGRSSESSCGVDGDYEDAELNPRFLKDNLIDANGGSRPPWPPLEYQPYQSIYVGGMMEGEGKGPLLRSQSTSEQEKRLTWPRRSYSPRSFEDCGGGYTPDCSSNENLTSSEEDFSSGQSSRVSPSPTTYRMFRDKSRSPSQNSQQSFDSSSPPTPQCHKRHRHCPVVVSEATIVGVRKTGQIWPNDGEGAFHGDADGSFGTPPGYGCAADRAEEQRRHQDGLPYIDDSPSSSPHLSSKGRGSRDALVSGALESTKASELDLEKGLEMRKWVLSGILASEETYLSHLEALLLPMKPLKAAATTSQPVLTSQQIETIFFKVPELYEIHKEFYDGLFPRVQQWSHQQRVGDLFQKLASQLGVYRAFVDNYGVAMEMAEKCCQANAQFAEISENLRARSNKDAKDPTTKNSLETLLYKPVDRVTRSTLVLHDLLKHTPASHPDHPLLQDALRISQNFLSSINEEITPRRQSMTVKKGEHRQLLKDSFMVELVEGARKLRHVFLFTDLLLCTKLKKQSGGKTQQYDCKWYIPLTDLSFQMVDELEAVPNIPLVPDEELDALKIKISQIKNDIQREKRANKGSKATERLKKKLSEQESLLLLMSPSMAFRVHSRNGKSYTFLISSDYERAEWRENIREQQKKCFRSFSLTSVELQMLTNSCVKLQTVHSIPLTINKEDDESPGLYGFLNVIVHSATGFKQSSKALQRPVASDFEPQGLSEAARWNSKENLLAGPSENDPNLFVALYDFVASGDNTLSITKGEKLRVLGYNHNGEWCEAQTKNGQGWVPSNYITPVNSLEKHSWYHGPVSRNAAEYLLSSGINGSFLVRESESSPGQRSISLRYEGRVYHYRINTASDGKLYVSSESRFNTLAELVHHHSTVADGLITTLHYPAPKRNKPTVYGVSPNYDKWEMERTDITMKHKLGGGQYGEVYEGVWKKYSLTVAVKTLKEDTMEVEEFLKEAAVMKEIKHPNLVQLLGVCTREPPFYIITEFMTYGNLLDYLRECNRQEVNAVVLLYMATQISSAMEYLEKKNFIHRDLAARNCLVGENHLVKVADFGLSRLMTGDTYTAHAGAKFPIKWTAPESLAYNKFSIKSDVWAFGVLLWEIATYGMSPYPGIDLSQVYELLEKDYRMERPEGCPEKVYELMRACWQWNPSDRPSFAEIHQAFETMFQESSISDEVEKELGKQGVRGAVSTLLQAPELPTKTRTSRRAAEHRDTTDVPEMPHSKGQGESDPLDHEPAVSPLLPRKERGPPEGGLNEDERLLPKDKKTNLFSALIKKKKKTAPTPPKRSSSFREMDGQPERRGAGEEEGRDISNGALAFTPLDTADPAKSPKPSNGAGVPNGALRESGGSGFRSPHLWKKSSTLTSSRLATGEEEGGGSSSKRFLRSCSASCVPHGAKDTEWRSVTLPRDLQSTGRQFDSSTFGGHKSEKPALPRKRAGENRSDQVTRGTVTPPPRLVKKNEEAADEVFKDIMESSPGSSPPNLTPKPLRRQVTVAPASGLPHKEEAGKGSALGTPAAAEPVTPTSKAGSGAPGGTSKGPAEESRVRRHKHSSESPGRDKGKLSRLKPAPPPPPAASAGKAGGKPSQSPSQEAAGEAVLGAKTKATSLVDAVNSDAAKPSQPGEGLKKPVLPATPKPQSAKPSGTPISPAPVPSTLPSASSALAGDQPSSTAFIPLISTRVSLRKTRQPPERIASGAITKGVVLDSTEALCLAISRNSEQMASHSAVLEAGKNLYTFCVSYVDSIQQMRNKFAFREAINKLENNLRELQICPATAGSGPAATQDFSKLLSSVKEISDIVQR
T5 sequence (P49841 whole entry): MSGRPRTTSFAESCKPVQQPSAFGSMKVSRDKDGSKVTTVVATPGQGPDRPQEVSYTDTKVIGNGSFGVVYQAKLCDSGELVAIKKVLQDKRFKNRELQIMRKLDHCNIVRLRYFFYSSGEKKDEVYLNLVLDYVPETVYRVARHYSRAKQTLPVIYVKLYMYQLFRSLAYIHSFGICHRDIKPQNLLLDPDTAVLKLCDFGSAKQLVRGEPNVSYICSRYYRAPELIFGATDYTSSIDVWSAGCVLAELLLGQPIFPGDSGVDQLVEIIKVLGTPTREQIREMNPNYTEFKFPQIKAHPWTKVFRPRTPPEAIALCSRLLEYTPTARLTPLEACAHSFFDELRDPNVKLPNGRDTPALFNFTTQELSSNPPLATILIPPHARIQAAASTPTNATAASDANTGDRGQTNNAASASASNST

SMILES	inhibition at 3 µM [1] [%]	pIC50 [1]	remaining protein rate (%) BCR-ABL [9]	remaining protein rate (%) XIAP [10]	further results
CN[C@@H](C)C(=O)N[C@H](C(=O)N1CCN(C(=O)c2c(C(=O)NCCOCCN3CCN(c4cc(Nc5ncc(C(=O)Nc6c(C)cccc6Cl)s5)nc(C)n4)CC3)c3cc(F)c(F)cc3n2C)CC1)C1CCCCC1 [Example 80, N-(2-Chloro-6-methylphenyl)-2-((6-(4-(2-(2-(2-(4-((S)-2-cyclohexyl-2-((S)-2-(methylamino)propanamide)acetyl)piperazine-1-carbonyl)-5,6-difluoro-1-methyl-1H-indole-3-carboxamido)ethoxy)ethyl)piperazin-1-yl)-2-methylpyrimidin-4-yl)amino)thiazole-5-carboxamide]		5.52 to 6.52	C (50%<C≤75%)		
CN[C@@H](C)C(=O)N[C@H](C(=O)N1CCN(C(=O)c2c(C(=O)NCCOCCOCCN3CCN(c4cc(Nc5ncc(C(=O)Nc6c(C)cccc6Cl)s5)nc(C)n4)CC3)c3cc(F)c(F)cc3n2C)CC1)C1CCCCC1 [Example 81, N-(2-Chloro-6-methylphenyl)-2-((6-(4-(2-(2-(2-(2-(4-((S)-2-cyclohexyl-2-((S)-2-(methylamino)propanamido)acetyl)piperazine-1-carbonyl)-5,6-difluoro-1-methyl-1H-indole-3-carboxamido)ethoxy)ethoxy)ethyl)piperazin-1-yl)-2-methylpyrimidin-4-yl)amino)thiazole-5-carboxamide trifluoroacetate]		5.52 to 6.52	D (D>75%)		
CN[C@@H](C)C(=O)N[C@H](C(=O)N1CCN(C(=O)c2c(C(=O)NCCOCCOCCNC(=O)c3c(C(=O)N4CCN(C(=O)[C@@H](NC(=O)[C@H](C)NC)C5CCCCC5)CC4)n(C)c4ccc(F)cc34)c3cc(F)ccc3n2C)CC1)C1CCCCC1 [Example 86, N,N′-((Ethan-1,2-diylbis(oxy))bis(ethan-2,1-diyl))bis(2-(4-((S)-2-cyclohexyl-2-((S)-2-(methylamino)propanamido)acetyl)piperazine-1-carbonyl)-5-fluoro-1-methyl-1H-indole-3-carboxamide) bistrifluoroacetate]	> 75	> 6.52		C (50%<C≤75%)	

More lines, main results first:

inhibition at 3 µM [1] [%]	pIC50 [1]	remaining protein rate (%) BCR-ABL [9]	SMILES	remaining protein rate (%) XIAP [10]	further results
> 75			CN[C@@H](C)C(=O)N[C@H](C(=O)N1CCN(C(=O)c2c(C(=O)NCCOCCOCC(=O)N3CCN(c4ccc(Nc5ncc6nnn(-c7ccc(OC)c(OC)c7)c6n5)cc4)CC3)c3ccc(OC)cc3n2C)CC1)C1CCCCC1 [Example 55, 2-(4-((S)-2-Cyclohexyl-2-((S)-2-(methylamino)propanamido)acetyl)piperazine-1-carbonyl)-N-(2-(2-(2-(4-(4-((3-(3,4-dimethoxyphenyl)-3H-[1,2,3]triazolo[4,5-d]pyrimidin-5-yl)amino)phenyl)piperazin-1-yl)-2-oxoethoxy)ethoxy)ethyl)-6-methoxy-1-methyl-1H-indole-3-carboxamide]		remaining binding at 1 µM [2]: 0.35%; remaining protein rate (%) GCN2 [3]: A (A≤25%); degradation activity of GSK3α/β and GCN2 with proteasome inhibitor Epoxomicin [4]: cancelled by the proteasome inhibitor Epoxomicin treatment; remaining binding at 1 µM [5]: 39%; remaining binding at 1 µM [6]: 11%; remaining protein rate (%) GSK3α [7]: B (25%<B≤50%); remaining protein rate (%) GSK3β [8]: B (25%<B≤50%)
> 75			CN[C@@H](C)C(=O)N[C@H](C(=O)N1CCN(C(=O)c2cc3cc(F)ccc3n2CC(=O)NCCOCCNC(=O)Cn2c(C(=O)N3CCN(C(=O)[C@@H](NC(=O)[C@H](C)NC)C4CCCCC4)CC3)cc3cc(F)ccc32)CC1)C1CCCCC1 [Example 87, (S)—N—((S)-1-Cyclohexyl-2-(4-(1-(2-((2-(2-(2-(2-(4-((R)-2-cyclohexyl-2-((R)-2-(methylamino)propanamide)acetyl)piperazine-1-carbonyl)-5-fluoro-1H-indol-1-yl)acetamide)ethoxy)ethyl)amino)-2-oxoethyl)-5-fluoro-1H-indole-2-carbonyl)piperazin-1-yl)-2-oxoethyl)-2-(methylamino)propanamide bistrifluoroacetate]	C (50%<C≤75%)	
